# Results as given in PubChem BioAssay AID2060627 (Molecular Pharmacology Branch, DTP, NCI, 2025).
# Where “and” joins values, the source holds several entries; their conditions need not be identical. Identical values can stand only once.
# Tested on: 156681-154-R-J1-PDC complex spheroid viability
# Test: Anticancer human tumor 156681-154-R-J1-PDC patient-derived melanoma cell line growth inhibition [CLK]
# Conditions: for viability, T/C: stronger effect = lower value
# Outline: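 Multi-cell-type spheroids combined patient-derived tumor cells with HUVEC endothelial cells and human mesenchymal stem cells. Paired agents were dosed in half-log steps down from about clinical Cmax, or from 10 microM where Cmax was unknown.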
# [1] = curve of first compound, second compound 0.0316 µM
# [2] = curve of first compound, second compound 0.1 µM
# [3] = curve of first compound, second compound 0.316 µM
# [4] = curve of first compound, second compound 1 µM
# [5] = curve of first compound, second compound 3.16 µM
# [6] = curve of first compound, second compound 10 µM
# [7] = second compound 0.0316 µM, first compound 0.0316 µM
# [8] = second compound 0.0316 µM, first compound 0.1 µM
# [9] = second compound 0.0316 µM, first compound 0.316 µM
# [10] = second compound 0.0316 µM, first compound 1 µM
# [11] = second compound 0.0316 µM, first compound 3.16 µM
# [12] = second compound 0.0316 µM, first compound 10 µM
# [13] = second compound 0.1 µM, first compound 0.0316 µM
# [14] = second compound 0.1 µM, first compound 0.1 µM
# [15] = second compound 0.1 µM, first compound 0.316 µM
# [16] = second compound 0.1 µM, first compound 1 µM
# [17] = second compound 0.1 µM, first compound 3.16 µM
# [18] = second compound 0.1 µM, first compound 10 µM
# [19] = second compound 0.316 µM, first compound 0.0316 µM
# [20] = second compound 0.316 µM, first compound 0.1 µM
# [21] = second compound 0.316 µM, first compound 0.316 µM
# [22] = second compound 0.316 µM, first compound 1 µM
# [23] = second compound 0.316 µM, first compound 3.16 µM
# [24] = second compound 0.316 µM, first compound 10 µM
# [25] = second compound 1 µM, first compound 0.0316 µM
# [26] = second compound 1 µM, first compound 0.1 µM
# [27] = second compound 1 µM, first compound 0.316 µM
# [28] = second compound 1 µM, first compound 1 µM
# [29] = second compound 1 µM, first compound 3.16 µM
# [30] = second compound 1 µM, first compound 10 µM
# [31] = second compound 3.16 µM, first compound 0.0316 µM
# [32] = second compound 3.16 µM, first compound 0.1 µM
# [33] = second compound 3.16 µM, first compound 0.316 µM
# [34] = second compound 3.16 µM, first compound 1 µM
# [35] = second compound 3.16 µM, first compound 3.16 µM
# [36] = second compound 3.16 µM, first compound 10 µM
# [37] = second compound 10 µM, first compound 0.0316 µM
# [38] = second compound 10 µM, first compound 0.1 µM
# [39] = second compound 10 µM, first compound 0.316 µM
# [40] = second compound 10 µM, first compound 1 µM
# [41] = second compound 10 µM, first compound 3.16 µM
# [42] = second compound 10 µM, first compound 10 µM
# 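Note: spheroids exposed to the agents for seven days.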
# 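Throughout, for viability, T/C: 100% = DMSO vehicle control viability.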
structure (smiles),measurement,setting,value
C=C(F)C(=O)N1CCN(c2nc(OCC3CCCN3C)nc3c2CCN(c2cccc4cccc(Cl)c24)C3)CC1CC#N (stereo not given) + CNC(=O)c1ccc(Nc2nc(OC3CCCC3)c3c(-c4ccc5nc(C)oc5c4)c[nH]c3n2)c(OC)c1,IC50,[1],1730 nM
same,IC50,[2],1110 nM
same,IC50,[3],1260 nM
same,IC50,[4],1020 nM
same,IC50,[5],< 31.6 nM
same,IC50,[6],< 31.6 nM
same,"viability, T/C",[7],70.9%
same,"viability, T/C",[8],92.6%
same,"viability, T/C",[9],76.5%
same,"viability, T/C",[10],87.4%
same,"viability, T/C",[11],15.2%
same,"viability, T/C",[12],0.17%
same,"viability, T/C",[13],45.3%
same,"viability, T/C",[14],56.5%
same,"viability, T/C",[15],54.9%
same,"viability, T/C",[16],59%
same,"viability, T/C",[17],11.4%
same,"viability, T/C",[18],2.23%
same,"viability, T/C",[19],46.7%
same,"viability, T/C",[20],49.5%
same,"viability, T/C",[21],77.3%
same,"viability, T/C",[22],66.5%
same,"viability, T/C",[23],10%
same,"viability, T/C",[24],0.09%
same,"viability, T/C",[25],59.3%
same,"viability, T/C",[26],53.3%
same,"viability, T/C",[27],43.9%
same,"viability, T/C",[28],50.9%
same,"viability, T/C",[29],3.8%
same,"viability, T/C",[30],0.09%
same,"viability, T/C",[31],48.2%
same,"viability, T/C",[32],33.5%
same,"viability, T/C",[33],37.1%
same,"viability, T/C",[34],42.6%
same,"viability, T/C",[35],2.84%
same,"viability, T/C",[36],0.11%
same,"viability, T/C",[37],39.2%
same,"viability, T/C",[38],37%
same,"viability, T/C",[39],28.7%
same,"viability, T/C",[40],40.4%
same,"viability, T/C",[41],1.02%
same,"viability, T/C",[42],4.8%
Cn1ncnc1[C@H]1c2n[nH]c(=O)c3cc(F)cc(c23)N[C@@H]1c1ccc(F)cc1 + CNC(=O)c1ccc(Nc2nc(OC3CCCC3)c3c(-c4ccc5nc(C)oc5c4)c[nH]c3n2)c(OC)c1,IC50,[1],> 100 nM
same,IC50,[2],> 100 nM
same,IC50,[3],> 100 nM
same,IC50,[4],0.316 nM
same,IC50,[5],< 0.316 nM
same,IC50,[6],< 0.316 nM
same,"viability, T/C","second compound 0.0316 µM, first compound 0.000316 µM",91.5%
same,"viability, T/C","second compound 0.0316 µM, first compound 0.001 µM",87.8%
same,"viability, T/C","second compound 0.0316 µM, first compound 0.00316 µM",74.9%
same,"viability, T/C","second compound 0.0316 µM, first compound 0.01 µM",84.6%
same,"viability, T/C",[7],83.2%
same,"viability, T/C",[8],64.1%
same,"viability, T/C","second compound 0.1 µM, first compound 0.000316 µM",56.9%
same,"viability, T/C","second compound 0.1 µM, first compound 0.001 µM",68.6%
same,"viability, T/C","second compound 0.1 µM, first compound 0.00316 µM",75.9%
same,"viability, T/C","second compound 0.1 µM, first compound 0.01 µM",66.6%
same,"viability, T/C",[13],62.3%
same,"viability, T/C",[14],53.5%
same,"viability, T/C","second compound 0.316 µM, first compound 0.000316 µM",67%
same,"viability, T/C","second compound 0.316 µM, first compound 0.001 µM",68.4%
same,"viability, T/C","second compound 0.316 µM, first compound 0.00316 µM",55.4%
same,"viability, T/C","second compound 0.316 µM, first compound 0.01 µM",58.4%
same,"viability, T/C",[19],60%
same,"viability, T/C",[20],51.9%
same,"viability, T/C","second compound 1 µM, first compound 0.000316 µM",51.8%
same,"viability, T/C","second compound 1 µM, first compound 0.001 µM",51.1%
same,"viability, T/C","second compound 1 µM, first compound 0.00316 µM",39.8%
same,"viability, T/C","second compound 1 µM, first compound 0.01 µM",44.3%
same,"viability, T/C",[25],53.6%
same,"viability, T/C",[26],29.3%
same,"viability, T/C","second compound 3.16 µM, first compound 0.000316 µM",55.1%
same,"viability, T/C","second compound 3.16 µM, first compound 0.001 µM",41.5%
same,"viability, T/C","second compound 3.16 µM, first compound 0.00316 µM",43.6%
same,"viability, T/C","second compound 3.16 µM, first compound 0.01 µM",49.5%
same,"viability, T/C",[31],39.5%
same,"viability, T/C",[32],33.1%
same,"viability, T/C","second compound 10 µM, first compound 0.000316 µM",49.3%
same,"viability, T/C","second compound 10 µM, first compound 0.001 µM",43.9%
same,"viability, T/C","second compound 10 µM, first compound 0.00316 µM",33.6%
same,"viability, T/C","second compound 10 µM, first compound 0.01 µM",32.5%
same,"viability, T/C",[37],38.6%
same,"viability, T/C",[38],25.4%
CCCS(=O)(=O)Nc1ccc(F)c(C(=O)c2c[nH]c3ncc(-c4ccc(Cl)cc4)cc23)c1F + CNC(=O)c1ccc(Nc2nc(OC3CCCC3)c3c(-c4ccc5nc(C)oc5c4)c[nH]c3n2)c(OC)c1,IC50,[1],4960 nM
same,IC50,[2],3870 nM
same,IC50,[3],2090 nM
same,IC50,[4],< 31.6 nM
same,IC50,[5],< 31.6 nM
same,IC50,[6],< 31.6 nM
same,"viability, T/C",[7],69%
same,"viability, T/C",[8],81.1%
same,"viability, T/C",[9],70.7%
same,"viability, T/C",[10],113%
same,"viability, T/C",[11],76.8%
same,"viability, T/C",[12],8.32%
same,"viability, T/C",[13],54.8%
same,"viability, T/C",[14],57.4%
same,"viability, T/C",[15],72.1%
same,"viability, T/C",[16],63%
same,"viability, T/C",[17],58.2%
same,"viability, T/C",[18],10.1%
same,"viability, T/C",[19],48%
same,"viability, T/C",[20],58.8%
same,"viability, T/C",[21],62.3%
same,"viability, T/C",[22],58.7%
same,"viability, T/C",[23],46.1%
same,"viability, T/C",[24],14.4%
same,"viability, T/C",[25],45.8%
same,"viability, T/C",[26],48.7%
same,"viability, T/C",[27],42.8%
same,"viability, T/C",[28],40.3%
same,"viability, T/C",[29],39.1%
same,"viability, T/C",[30],12.5%
same,"viability, T/C",[31],41.1%
same,"viability, T/C",[32],29.7%
same,"viability, T/C",[33],33.5%
same,"viability, T/C",[34],34%
same,"viability, T/C",[35],36.2%
same,"viability, T/C",[36],13.8%
same,"viability, T/C",[37],34.9%
same,"viability, T/C",[38],34.3%
same,"viability, T/C",[39],22.1%
same,"viability, T/C",[40],32.5%
same,"viability, T/C",[41],23.4%
same,"viability, T/C",[42],12.2%
O=c1[nH]cc(F)c(=O)[nH]1,"viability, T/C",compound 0.0316 µM,72.7% and 87.1%
same,"viability, T/C",compound 0.1 µM,85.4% and 88.9%
same,"viability, T/C",compound 0.316 µM,84.8% and 79.8%
same,"viability, T/C",compound 1 µM,91% and 90.6%
same,"viability, T/C",compound 3.16 µM,81.6% and 80.6%
same,"viability, T/C",compound 10 µM,34% and 35.9%
same,IC50,curve of compound,6800 nM and 7000 nM
C=C(F)C(=O)N1CCN(c2nc(OCC3CCCN3C)nc3c2CCN(c2cccc4cccc(Cl)c24)C3)CC1CC#N (stereo not given),"viability, T/C",compound 0.0316 µM,62.4% and 97.8%
same,"viability, T/C",compound 0.1 µM,68.8% and 78%
same,"viability, T/C",compound 0.316 µM,85% and 95.9%
same,"viability, T/C",compound 1 µM,51.9% and 90.4%
same,"viability, T/C",compound 3.16 µM,11.4% and 28.5%
same,"viability, T/C",compound 10 µM,1.93% and 0.2%
same,IC50,curve of compound,1100 nM and 2120 nM
